From ChEMBL document CHEMBL4818987, “Recent advances of podophyllotoxin/epipodophyllotoxin hybrids in anticancer activity, mode of action, and structure-activity relationship: An update (2010-2020)” (Eur J Med Chem, 2020) come the findings set out here.

In data set [1] the test system is A549. Put plainly: Antiproliferative activity against human A549 cells incubated for 3 days by MTT assay. As to conditions: A549, 72 h. The data set is classed as functional, cell-based. On the technique in general: Formazan colour is commonly taken as a measure of viable cells.
Data set [2] has as its system HepG2. Put plainly: Antiproliferative activity against human HepG2 cells incubated for 3 days by MTT assay. Type of data set: functional, cell-based. As to conditions: HepG2, 72 h.
Data set [3] deals with HepG2. Put plainly: Potency index, ratio of etoposide IC50 to test compound IC50 for antiproliferative activity against human HepG2 cells. Type of data set: functional.
Data set [4] relates to HCT-116. Kind of data set: Antiproliferative activity against human HCT116 cells incubated for 3 days by MTT assay. The data set is classed as functional, cell-based. The following applies: HCT-116, 72 h.
In data set [5] the test system is HCT-116. Put plainly: Potency index, ratio of etoposide IC50 to test compound IC50 for antiproliferative activity against human HCT116 cells. Type of data set: functional.
Data set [6] has as its system A549. Kind of data set: Potency index, ratio of etoposide IC50 to test compound IC50 for antiproliferative activity against human A549 cells. Type of data set: functional.
A short description of data set [7]: MRT in Sprague-Dawley rat at 2.5 mg/kg, iv measured after 5 to 1440 mins by LC-MS/MS analysis. The following applies: in vivo, time 5-1440 min. The data set is classed as ADME, organism-based.
Data set [8] in a line: Plasma clearance in Sprague-Dawley rat at 2.5 mg/kg, iv measured after 5 to 1440 mins by LC-MS/MS analysis. As to conditions: time 5-1440 min, dose 2.5 mg/kg. Type of data set: ADME, organism-based. Also noted: dose 2.5 mg/kg, time upper 1440 min, time lower 5 min.
The nature of data set [9]: Terminal half life in Sprague-Dawley rat at 2.5 mg/kg, iv measured after 5 to 1440 mins by LC-MS/MS analysis. Type of data set: ADME, organism-based. As to conditions: in vivo, time 5-1440 min, read-out: beta t1/2 (converted).
A short description of data set [10]: AUCinfinity in Sprague-Dawley rat at 2.5 mg/kg, iv measured after 5 to 1440 mins by LC-MS/MS analysis. The data set is classed as ADME, organism-based. Also noted: route intravenous, dose 2.5 mg/kg, time upper 1440 min, time lower 5 min. As to conditions: in vivo, 2.5 mg/kg.
Data set [11] is described as follows: Mean initial plasma concentration in Sprague-Dawley rat at 2.5 mg/kg, iv measured after 5 to 1440 mins by LC-MS/MS analysis. As to conditions: rat, plasma, iv, time 5-1440 min, dose 2.5 mg/kg, read-out: C0. Type of data set: ADME, organism-based.
For another data set, the system named is DU-145. Kind of data set: Antiproliferative activity against human DU145 cells by MTT assay. The data set is classed as functional, cell-based.
Data set [12] concerns BGC-823. Kind of data set: Potency index, ratio of etoposide IC50 to test compound IC50 for antiproliferative activity against human BGC-823 cells. The data set is classed as functional.
For data set [13], the system named is MKN-45. Put plainly: Antiproliferative activity against human MKN-45 cells incubated for 72 hrs by MTT assay. The data set is classed as functional, cell-based. The following applies: Homo sapiens, MKN-45, 72 h.
Data set [14] concerns MKN-45. Put plainly: Potency index, ratio of etoposide IC50 to test compound IC50 for antiproliferative activity against human MKN-45 cells. The data set is classed as functional.
The subject of data set [15] is BGC-823. Put plainly: Antiproliferative activity against human BGC-823 cells incubated for 72 hrs by MTT assay. The data set is classed as functional, cell-based. The following applies: BGC-823, 72 h.
The test system of a further data set is SMMC-7721. Put plainly: Antiproliferative activity against human SMMC-7721 cells incubated for 48 hrs by MTT assay. Type of data set: functional, cell-based. As to conditions: SMMC-7721, 48 h.
In data set [16] the test system is A549. Put plainly: Antiproliferative activity against human A549 cells incubated for 48 hrs by MTT assay. Type of data set: functional, cell-based. As to conditions: A549, 48 h.
A short description of data set [17]: Selectivity index, ratio of CC50 for human BEAS2B cells to IC50 for human SW480 cells. Type of data set: toxicity. As to conditions: read-out: Ratio CC50/IC50.
The nature of data set [18]: Selectivity index, ratio of CC50 for human BEAS2B cells to IC50 for human A549 cells. Type of data set: toxicity. The following applies: read-out: Ratio CC50/IC50.
A short description of data set [19]: Cytotoxicity against human BEAS2B cells. Type of data set: cell-based. The following applies: BEAS-2B cells.
A short description of data set [20]: Selectivity index, ratio of CC50 for human BEAS2B cells to IC50 for human SMMC7721 cells. The data set is classed as toxicity. The following applies: read-out: Ratio CC50/IC50.
A short description of data set [21]: Selectivity index, ratio of CC50 for human BEAS2B cells to IC50 for human MCF7 cells. The data set is classed as toxicity. The following applies: read-out: Ratio CC50/IC50.
Another data set concerns HL-60. Kind of data set: Antiproliferative activity against human HL-60 cells incubated for 48 hrs by MTT assay. Type of data set: functional, cell-based. The following applies: HL-60, 48 h.
Another data set relates to MCF7. Kind of data set: Antiproliferative activity against human MCF7 cells incubated for 48 hrs by MTT assay. The data set is classed as functional, cell-based. As to conditions: MCF7, 48 h.
Data set [22] can be described thus: Selectivity index, ratio of CC50 for human BEAS2B cells to IC50 for human HL60 cells. Type of data set: toxicity. The following applies: read-out: Ratio CC50/IC50.
The next data set deals with SW480. Put plainly: Antiproliferative activity against human SW480 cells incubated for 48 hrs by MTT assay. Type of data set: functional, cell-based. As to conditions: SW480, 48 h.

In the case of `COc1cc([C@@H]2c3cc4c(cc3[C@@H](NC(=S)NC(=O)c3ccccc3)[C@H]3COC(=O)[C@H]23)OCO4)cc(OC)c1OC`, the IC50 in the data set on A549 [1], in the data set with HepG2 [2] and in the data set on HCT-116 [4] was 0.1 µM each time. For the same compound, the “Ratio IC50” value in the data set on HepG2 [3], in the data set with HCT-116 [5] and in the data set with A549 [6] was 49 throughout.

Compound `COc1cc([C@@H]2c3cc4c(cc3[C@@H](NCC(F)(F)[C@]3(O)O[C@H](CO)[C@@H](O)[C@H](O)[C@H]3O)[C@H]3COC(=O)[C@H]23)OCO4)cc(OC)c1OC` yielded an MRT in data set [7] of 16.2 min. In addition, in data set [8], the clearance stood at 19 mL/min/kg. Besides, the half-life in data set [9] was 67.8 min. Besides, in [10], the AUC(0-inf) was found to be 2210 ng·h/mL. The C0 in data set [11] amounted to 8780 ng/mL.

As for `COc1cc([C@@H]2c3cc4c(cc3[C@@H](OCc3cn([C@@H]5O[C@H](COC(C)=O)[C@@H](OC(C)=O)[C@H](OC(C)=O)[C@H]5OC(C)=O)nn3)[C@H]3COC(=O)[C@H]23)OCO4)cc(OC)c1OC`, the midpoint of inhibition with DU-145, the IC50, lay at 1.02 µM.

Take `COc1cc([C@@H]2c3cc4c(cc3[C@H](OC(=O)/C=C(C)/C=C/C=C(C)/C=C/C3=C(C)CCCC3(C)C)[C@H]3COC(=O)[C@H]23)OCO4)cc(OC)c1OC`: the “Ratio IC50” value with BGC-823 [12] and in the data set on MKN-45 [14] was 6.8 each time. The figures for the IC50 in the data set with MKN-45 [13] and with BGC-823 [15] were 0.419 µM and 0.202 µM, respectively.

With `CCCC(=O)OC[C@H]1O[C@@H](OC(COCc2cn([C@@H]3c4cc5c(cc4[C@@H](c4cc(OC)c(OC)c(OC)c4)[C@H]4C(=O)OC[C@@H]43)OCO5)nn2)COCc2cn([C@@H]3c4cc5c(cc4[C@@H](c4cc(OC)c(OC)c(OC)c4)[C@H]4C(=O)OC[C@@H]43)OCO5)nn2)[C@H](OC(=O)CCC)[C@@H](OC(=O)CCC)[C@@H]1OC(=O)CCC` (some centres not stated), the IC50 in the data set with SMMC-7721, in the data set on A549 [16], in the data set with HL-60, with MCF7 and in the data set with SW480 was 0.43 µM in each case. Moreover, the selectivity ratio in data set [17], in data set [18], in data set [20], in [21] and in [22] was 4.3 in each case. The CC50 in data set [19] was determined as 15.4 µM.

Broadly, the IC50 is the concentration that inhibits the measured activity by half. For orientation: MRT means a mean duration of stay, worked out from the concentration-time curve. In general, clearance refers to the volume of plasma or blood freed of the substance per unit of time. As usually defined, the AUC(0-inf) is the area under the concentration-time curve extrapolated to infinity. A higher AUC(0-inf) goes with more exposure. Broadly, the CC50 is the concentration that lowers cell viability or growth by half. A low value points to harm at low concentration.
